Patent US5635356A, “Anti-oncoimmunin-M antibodies and uses thereof” (The United States of America as represented by the …, priority 1994, dated 1997)

System: Oncoimmunin-M treated HL-60 cells
Assay: Chemotaxis in multiwell microchemotaxis chamber
Format: cell-based, human
Settings: HL-60 cells exposed to Oncoimmunin-M (2 nM) for two days; f-Met-Leu-Phe 10^-10 to 10^-6 M; 3 hr, 37° C.; FIG. 22C
Method: To assess whether the Oncoimmunin-M induced alterations in integrin expression are associated with the induction of a biologic activity which could serve a role in antitumor or antimicrobial function, HL-60 cells that had been exposed to Oncoimmunin-M (2 nM) for two days were assayed for chemotactic ability. Specifically, the treated cells were placed in a multiwell microchemotaxis chamber and assayed for their ability to migrate in response to a gradient of the chemoattractant recombinant human C5a (rHuC5a), recombinant interleukin-8, and the peptide f-Met-Leu-Phe.
Cells were suspended in the serum-free medium (SFM) at a concentration of 5×10^5 cells/ml. Assays in which the total number of cells migrating through the polyvinylpyrrolidone-free polycarbonate membranes (5 μm pores; Nucleopore Corp., Pleasanton, Calif.) were performed for 3 hr in a 37° C. incubator containing 5% CO2. After incubation, nonmigrated cells were wiped off the filters which were then fixed in methanol and stained with Diff-Quik (Dade Diagnostics, Inc., Aguada, Puerto Rico). Migrated cells were counted with an Optomax System 40-10 Image Analyzer (Optomax, Inc., Hollis, N.H., U.S.A.). Random migration was determined by quantifying cell migration to serum-free medium alone.

## CSCC[C@H](NC=O)C(=O)N[C@@H](CC(C)C)C(=O)N[C@@H](Cc1ccccc1)C(=O)O [f-Met-Leu-Phe]
  migratory (chemotactic) response to chemoattractant gradient: no significant response
